Test results: ChEMBL document CHEMBL5727227, “N-((het) arylmethyl)-heteroaryl-carboxamides compounds as plasma kallikrein inhibitors” (2019)

Molecular target: Plasma kallikrein (Homo sapiens, UniProt P03952)
Assay: Inhibitory Activity In Vitro Assay : Plasma kallikrein inhibitory activity in vitro was determined using standard published methods. Human plasma kallikrein (Protogen) was incubated at 25° C. with the fluorogenic substrate H-DPro-Phe-Arg-AFC and various concentrations of the test compound. Residual enzyme activity (initial rate of reaction) was determined by measuring the change in […] and the IC50 value for the test compound was determined.

Sequence of Plasma kallikrein (P03952 20-390 limits assumed): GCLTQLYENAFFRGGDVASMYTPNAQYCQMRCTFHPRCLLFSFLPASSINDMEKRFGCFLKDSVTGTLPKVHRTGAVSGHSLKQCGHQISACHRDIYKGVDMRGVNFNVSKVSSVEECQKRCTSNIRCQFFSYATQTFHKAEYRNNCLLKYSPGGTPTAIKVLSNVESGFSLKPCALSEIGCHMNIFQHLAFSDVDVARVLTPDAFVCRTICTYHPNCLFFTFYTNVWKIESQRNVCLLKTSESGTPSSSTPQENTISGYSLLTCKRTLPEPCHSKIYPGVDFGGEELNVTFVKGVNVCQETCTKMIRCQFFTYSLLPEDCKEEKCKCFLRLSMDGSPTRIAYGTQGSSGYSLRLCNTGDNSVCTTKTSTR
Sequence of Plasma kallikrein (P03952 391-638 limits assumed): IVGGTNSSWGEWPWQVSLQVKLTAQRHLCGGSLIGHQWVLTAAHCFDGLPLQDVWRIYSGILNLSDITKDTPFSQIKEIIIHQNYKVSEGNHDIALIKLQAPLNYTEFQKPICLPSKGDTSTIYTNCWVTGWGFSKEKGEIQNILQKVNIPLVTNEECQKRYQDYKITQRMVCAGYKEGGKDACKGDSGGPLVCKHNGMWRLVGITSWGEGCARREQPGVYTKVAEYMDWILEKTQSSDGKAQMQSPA

IC50: 2.36 µM
SMILES: CCOc1cccc(CNC(=O)c2cn(Cc3ccc(Cn4cc(C)cn4)cc3)nc2C(F)(F)F)c1
